Data from PubChem BioAssay AID1919009 (Molecular Pharmacology Branch, DTP, NCI, 2023).

Tested on: K24384-001-R-PDC complex spheroid growth
Test: Anticancer human tumor K24384-001-R-PDC patient-derived pancreatic adenocarcinoma cell line growth inhibition [AhR]
Settings: for IC50: curve of first compound; for viability, T/C: stronger effect = lower value
Summary of the method: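 Spheroids combined tumor cells with HUVEC endothelial cells and human MSCs as stroma. AhR antagonists were paired with standard or investigational drugs, each dosed in half-log steps down from near clinical Cmax, or from 10 microM where Cmax was unknown.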

[1] = second compound 0.1 µM, first compound 0.0316 µM
[2] = second compound 0.1 µM, first compound 0.1 µM
[3] = second compound 0.1 µM, first compound 0.316 µM
[4] = second compound 0.1 µM, first compound 1 µM
[5] = second compound 0.1 µM, first compound 3.16 µM
[6] = second compound 0.1 µM, first compound 10 µM
[7] = second compound 0.316 µM, first compound 0.0316 µM
[8] = second compound 0.316 µM, first compound 0.1 µM
[9] = second compound 0.316 µM, first compound 0.316 µM
[10] = second compound 0.316 µM, first compound 1 µM
[11] = second compound 0.316 µM, first compound 3.16 µM
[12] = second compound 0.316 µM, first compound 10 µM
[13] = second compound 1 µM, first compound 0.0316 µM
[14] = second compound 1 µM, first compound 0.1 µM
[15] = second compound 1 µM, first compound 0.316 µM
[16] = second compound 1 µM, first compound 1 µM
[17] = second compound 1 µM, first compound 3.16 µM
[18] = second compound 1 µM, first compound 10 µM
[19] = second compound 3.16 µM, first compound 0.0316 µM
[20] = second compound 3.16 µM, first compound 0.1 µM
[21] = second compound 3.16 µM, first compound 0.316 µM
[22] = second compound 3.16 µM, first compound 1 µM
[23] = second compound 3.16 µM, first compound 3.16 µM
[24] = second compound 3.16 µM, first compound 10 µM
[25] = second compound 10 µM, first compound 0.0316 µM
[26] = second compound 10 µM, first compound 0.1 µM
[27] = second compound 10 µM, first compound 0.316 µM
[28] = second compound 10 µM, first compound 1 µM
[29] = second compound 10 µM, first compound 3.16 µM
[30] = second compound 10 µM, first compound 10 µM
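Wherever viability, T/C is given: percent of DMSO vehicle-treated spheroid viability set as 100%.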

SMILES | IC50 (second compound 0.1 µM) [µM] | IC50 (second compound 0.316 µM) [µM] | IC50 (second compound 1 µM) [µM] | IC50 (second compound 3.16 µM) [µM] | IC50 (second compound 10 µM) [µM] | viability, T/C [1] [%] | viability, T/C [2] [%] | viability, T/C [3] [%] | viability, T/C [4] [%] | viability, T/C [5] [%] | viability, T/C [6] [%] | viability, T/C [7] [%] | viability, T/C [8] [%] | viability, T/C [9] [%] | viability, T/C [10] [%] | viability, T/C [11] [%] | viability, T/C [12] [%] | viability, T/C [13] [%] | viability, T/C [14] [%] | viability, T/C [15] [%] | other results
COc1cc(Nc2ncc3c(n2)-c2ccc(Cl)cc2C(c2c(F)cccc2OC)=NC3)ccc1C(=O)O + Cc1ccccc1N=Nc1ccc(NC(=O)c2ccnn2C)c(C)c1 | > 10 | > 10 | > 10 | 3.16 | > 10 | 87.8 | 71.2 | 76 | 48.9 | 49.6 | 51.5 | 79.8 | 68.1 | 68.7 | 60.6 | 52.6 | 54.1 | 79.5 | 69.3 | 60.6 | viability, T/C [16]: 48.7%; viability, T/C [17]: 52.6%; viability, T/C [18]: 60.1%; viability, T/C [19]: 64.7%; viability, T/C [20]: 64.5%; viability, T/C [21]: 69.2%; viability, T/C [22]: 49.2%; viability, T/C [23]: 54.9%; viability, T/C [24]: 57.3%; viability, T/C [25]: 90.6%; viability, T/C [26]: 84.8%; viability, T/C [27]: 85.5%; viability, T/C [28]: 74.2%; viability, T/C [29]: 75.4%; viability, T/C [30]: 70.3%
NS(=O)(=O)OCC1CC(n2ccc3c(NC4CCc5ccccc54)ncnc32)CC1O (stereo not given) + Cc1ccccc1N=Nc1ccc(NC(=O)c2ccnn2C)c(C)c1 | 0.932 | 0.928 | 0.732 | 0.432 | 0.427 | 104 | 117 | 96.4 | 47.4 | 23.7 | 22.1 | 104 | 115 | 98.8 | 46.1 | 27.3 | 18.3 | 117 | 127 | 83.5 | viability, T/C [16]: 39.5%; viability, T/C [17]: 24.2%; viability, T/C [18]: 22.6%; viability, T/C [19]: 103%; viability, T/C [20]: 108%; viability, T/C [21]: 58.3%; viability, T/C [22]: 32.7%; viability, T/C [23]: 24.6%; viability, T/C [24]: 20.9%; viability, T/C [25]: 96.2%; viability, T/C [26]: 104%; viability, T/C [27]: 59%; viability, T/C [28]: 30.1%; viability, T/C [29]: 23.4%; viability, T/C [30]: 20.3%
